Measurements as given in patent US8802597B2, “Herbicidal pyrimidines” (E I du Pont de Nemours and Company, priority 2003, dated 2014).

Key:
Format in all cases: in vivo
corn (Zea mays) = experiment: Test B pre/postemergence
Procedure, shortened: (§1)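 Test chemicals in a non-phytotoxic solvent mixture with surfactant were applied preemergence to planted seeds and postemergence to plants 2 to 18 cm tall (1- to 4-leaf stage). After 13 to 15 days in a greenhouse, injury was visually rated against untreated controls on a 0 to 100 scale.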

[1] = tested on: crabgrass (Digitaria sanguinalis); experiment: Test B pre/postemergence
Procedure, shortened: as §1

[2] = tested on: morningglory (Ipomoea coccinea); experiment: Test B pre/postemergence
Procedure, shortened: as §1

[3] = tested on: giant foxtail (Setaria faberii); experiment: Test B pre/postemergence
Procedure, shortened: as §1

[4] = tested on: pigweed (Amaranthus retroflexus); experiment: Test B pre/postemergence
Procedure, shortened: as §1

[5] = tested on: barnyardgrass (Echinochloa crus-galli); experiment: Test B pre/postemergence
Procedure, shortened: as §1

[6] = tested on: velvetleaf (Abutilon theophrasti); experiment: Test B pre/postemergence
Procedure, shortened: as §1

[7] = tested on: wheat (Triticum aestivum); experiment: Test B pre/postemergence
Procedure, shortened: as §1

[8] = tested on: lambsquarters (Chenopodium album); experiment: Test B pre/postemergence
Procedure, shortened: as §1

[9] = tested on: Surinam grass (Brachiaria decumbens); experiment: Test B pre/postemergence
Procedure, shortened: as §1

[10] = tested on: cocklebur (Xanthium strumarium); experiment: Test B pre/postemergence
Procedure, shortened: as §1

[11] = tested on: blackgrass (Alopecurus myosuroides); experiment: Test B postemergence; details: for Blackgrass plant response rating: 125 g ai/ha, scale 0 to 100 (0 no effect, 100 complete control); for Plant response rating, Blackgrass: 500 g ai/ha, scale 0 to 100
Procedure, shortened: as §1

wild oat (Avena fatua) = experiment: Test B postemergence; details: for Oat, Wild plant response rating: 125 g ai/ha, scale 0 to 100 (0 no effect, 100 complete control); for Plant response rating, Oat, Wild: 500 g ai/ha, scale 0 to 100
Procedure, shortened: as §1

rice (Oryza sativa) = experiment: Test B flooded paddy test; details: Flood, 1000 g ai/ha; scale 0 to 100
Procedure, shortened: (§2)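 Visual injury scoring (0 = no effect, 100 = complete control) versus controls made 13 to 15 days after treatment in the greenhouse. Test species were grown in flooded paddy to the 2-leaf stage: rice, barnyardgrass, umbrella sedge, duck salad.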

[12] = tested on: barnyardgrass (Echinochloa crus-galli); experiment: Test B flooded paddy test; details: Flood, 1000 g ai/ha; scale 0 (no effect) to 100 (complete control)
Procedure, shortened: as §2

[13] = tested on: umbrella sedge (Cyperus difformis); experiment: Test B flooded paddy test; details: Flood, 1000 g ai/ha; scale 0 to 100
Procedure, shortened: as §2

[14] = tested on: duck salad (Heteranthera limosa); experiment: Test B flooded paddy test; details: Flood, 1000 g ai/ha; scale 0 to 100
Procedure, shortened: as §2

[15] = Postemergence, 125 g ai/ha, scale 0 to 100 (0 no effect, 100 complete control)
[16] = Postemergence, 500 g ai/ha, scale 0 to 100
[17] = Preemergence, 125 g ai/ha, scale 0 to 100 (0 no effect, 100 complete control)
[18] = Preemergence, 500 g ai/ha, scale 0 to 100 (0 no effect, 100 complete control)

COC(=O)CNc1nc(C2CC2)nc(C(=O)OC)c1Br [Compound 10]
50: Barnyardgrass plant response rating [5, 18] | Velvetleaf plant response rating [6, 15]
30: Crabgrass plant response rating [1, 15]
70: Plant response rating, Cocklebur [10, 16]
10: Plant response rating, Foxtail, Giant [3, 16] | Plant response rating, Barnyardgrass [5, 16] | Surinam Grass plant response rating [9, 15] | Plant response rating, Surinam Grass [9, 16] | Plant response rating, Oat, Wild (wild oat (Avena fatua))
20: Plant response rating, Crabgrass [1, 17] | Foxtail, Giant plant response rating [3, 18] | Plant response rating, Barnyardgrass [5, 17]
80: Morningglory plant response rating [2, 15] | Plant response rating, Morningglory [2, 16] | Plant response rating, Morningglory [2, 17] | Pigweed plant response rating [4, 15] | Plant response rating, Pigweed [4, 17] | Plant response rating, Velvetleaf [6, 16] | Plant response rating, Velvetleaf [6, 17] | Lambsquarters plant response rating [8, 15] | Plant response rating, Cocklebur [10, 17]
40: Plant response rating, Crabgrass [1, 16]
0: Corn plant response rating (corn (Zea mays); [15]) | Plant response rating, Corn (corn (Zea mays); [16]) | Plant response rating, Corn (corn (Zea mays); [17]) | Corn plant response rating (corn (Zea mays); [18]) | Foxtail, Giant plant response rating [3, 15] | Plant response rating, Foxtail, Giant [3, 17] | Barnyardgrass plant response rating [5, 15] | Wheat plant response rating [7, 15] | Plant response rating, Wheat [7, 16] | Plant response rating, Wheat [7, 17] | Wheat plant response rating [7, 18] | Plant response rating, Surinam Grass [9, 17] | Surinam Grass plant response rating [9, 18] | Blackgrass plant response rating [11] | Plant response rating, Blackgrass [11] | Oat, Wild plant response rating (wild oat (Avena fatua)) | Plant response rating, Rice (rice (Oryza sativa)) | Plant response rating, Barnyardgrass [12] | Plant response rating, Sedge, Umbrella [13] | Plant response rating, Ducksalad [14]
60: Crabgrass plant response rating [1, 18] | Cocklebur plant response rating [10, 15]
90: Morningglory plant response rating [2, 18] | Plant response rating, Pigweed [4, 16] | Pigweed plant response rating [4, 18] | Velvetleaf plant response rating [6, 18] | Plant response rating, Lambsquarters [8, 16] | Lambsquarters plant response rating [8, 18] | Cocklebur plant response rating [10, 18]

COCc1nc(C2CC2)nc(N)c1Br [Compound 11]
90: Morningglory plant response rating [2, 18] | Plant response rating, Pigweed [4, 16] | Pigweed plant response rating [4, 18] | Plant response rating, Barnyardgrass [5, 16] | Velvetleaf plant response rating [6, 18] | Lambsquarters plant response rating [8, 15] | Plant response rating, Cocklebur [10, 16] | Cocklebur plant response rating [10, 18]
0: Corn plant response rating (corn (Zea mays); [15]) | Plant response rating, Corn (corn (Zea mays); [16]) | Plant response rating, Corn (corn (Zea mays); [17]) | Corn plant response rating (corn (Zea mays); [18]) | Plant response rating, Barnyardgrass [5, 17] | Wheat plant response rating [7, 15] | Plant response rating, Wheat [7, 17] | Oat, Wild plant response rating (wild oat (Avena fatua)) | Plant response rating, Rice (rice (Oryza sativa)) | Plant response rating, Barnyardgrass [12]
40: Plant response rating, Wheat [7, 16]
60: Velvetleaf plant response rating [6, 15] | Plant response rating, Blackgrass [11]
50: Plant response rating, Foxtail, Giant [3, 16] | Wheat plant response rating [7, 18] | Plant response rating, Surinam Grass [9, 16]
30: Crabgrass plant response rating [1, 15] | Plant response rating, Crabgrass [1, 17]
20: Barnyardgrass plant response rating [5, 15] | Surinam Grass plant response rating [9, 15] | Blackgrass plant response rating [11] | Plant response rating, Sedge, Umbrella [13]
70: Plant response rating, Crabgrass [1, 16] | Foxtail, Giant plant response rating [3, 18] | Surinam Grass plant response rating [9, 18] | Plant response rating, Ducksalad [14]
10: Foxtail, Giant plant response rating [3, 15] | Plant response rating, Foxtail, Giant [3, 17] | Barnyardgrass plant response rating [5, 18] | Plant response rating, Surinam Grass [9, 17] | Plant response rating, Oat, Wild (wild oat (Avena fatua))
80: Crabgrass plant response rating [1, 18] | Morningglory plant response rating [2, 15] | Plant response rating, Morningglory [2, 17] | Pigweed plant response rating [4, 15] | Plant response rating, Pigweed [4, 17] | Plant response rating, Velvetleaf [6, 16] | Plant response rating, Velvetleaf [6, 17] | Cocklebur plant response rating [10, 15] | Plant response rating, Cocklebur [10, 17]
100: Plant response rating, Morningglory [2, 16] | Plant response rating, Lambsquarters [8, 16] | Plant response rating, Lambsquarters [8, 17] | Lambsquarters plant response rating [8, 18]
